This is an account of results in patent US6737429B2, “Pyrrole derivatives” (Hoffmann-La Roche Inc., priority 2000, dated 2004).

Assay [1] deals with HIV-1 RT (Human immunodeficiency virus type 1 group M subtype B, UniProt P04585). Put plainly: HIV-1 Reverse Transcriptase Assay: Inhibitor IC50 Determination. It counts as biochemical. The conditions noted are these: purified recombinant enzyme, poly(rA)/oligo(dT)16 template-primer, 37° C. 30 min. As for the experimental part: HIV-1 Reverse Transcriptase Assay: Inhibitor IC50 Determination.
HIV-1 RT assay was carried out in 96-well Millipore filtermat NOB50 plates using purified recombinant enzyme and a poly(rA)/oligo(dT)16 template-primer in a total volume of 50 μL. The assay constituents were 50 mM Tris/HCl, 50 mM NaCl, 1 mM EDTA, 6 mM MgCl2, 5 μM dTTP, 0.1 μCi [^3H] dTTP, 5 μg/ml poly (rA) pre annealed to 2.5 μg/ml oligo (dT)16 and a range of inhibitor concentrations in a final concentration of 10% DMSO. Reactions were initiated by adding 5 nM HIV-1 RT and after incubation at 37° C. for 30 min, they were stopped by the addition of 50 μl ice cold 20% TCA and allowed to precipitate at 4° C. for 30 min. The precipitates were collected by applying vacuum to the plate and sequentially washing with 2×200 μl of 10% TCA and 2×200 μl 70% ethanol. Finally the plates were dried and radioactivity counted in a Wallac Microbeta 1450 after the addition of 15 μl scintillation fluid per well. IC50's were calculated by plotting % inhibition versus log10 inhibitor concentrations.

The test system of assay [2] is HXB2-strain of HIV in MT4 cells. Put plainly: Antiviral assay: protection of HIV-infected MT4 cells from cell-death (MTT). The conditions noted are these: Human immunodeficiency virus 1, 120 h; MT4 cells infected with HXB2-strain of HIV, 5 d, MTT viability. It counts as cell-based. As for the experimental part: Anti-HIV antiviral activity was assessed using an adaptation of the method of Pauwels et al. {Pauwels et al., 1988, J Virol Methods 20:309-321}. The method is based on the ability of compounds to protect HIV-infected T lymphoblastoid cells (MT4 cells) from cell-death mediated by the infection. The endpoint of the assay was calculated as the concentration of compound at which the cell viability of the culture was preserved by 50% (‘50% inhibitory concentration’, IC50). The cell viability of a culture was determined by the uptake of soluble, yellow 3-[4,5-dimethylthiazol-2-yl]-2,5-diphenyltetrazolium bromide (MTT) and its reduction to a purple insoluble formazan salt. After solubilization, spectrophotometric methods were employed to measure the amount of formazan product.
MT4 cells were prepared to be in logarithmic-phase growth and a total of 2×10^6 cells infected with the HXB2-strain of HIV at a multiplicity of 0.0001 infectious units of virus per cell in a total volume of between 200-500 microliters. The cells were incubated with virus for one h at 37° C. before removal of virus. The cells are then washed in 0.01 M phosphate buffered saline, pH 7.2 before being resuspensed in culture medium for incubation in culture with serial dilutions of test compound. The culture medium used was RPMI 1640 without phenol red, supplemented with penicillin, streptomycin, L-glutamine and 10% fetal calf serum (GM10).
Test compounds were prepared as 2 mM solutions in dimethyl sulphoxide (DMSO). Four replicate, serial 2-fold dilutions in GM10 were then prepared and 50 microliters amounts placed in 96-well plates over a final nanomolar concentration range of 625-1.22. Fifty microliters GM10 and 3.5×10^4 infected cells were then added to each well. Control cultures containing no cells (blank), uninfected cells (100% viability; 4 replicates) and infected cells without compound (total virus-mediated cell death; 4 replicates) were also prepared. The cultures were then incubated at 37° C. in a humidified atmosphere of 5% CO2 in air for 5 d.
A fresh solution of 5 mg/mL MTT was prepared in 0.01 M phosphate buffered saline, pH 7.2 and 20 microliters added to each culture. The cultures were further incubated as before for 2 h. They were then mixed by pipetting up and down and 170 microliters of Triton X-100 in acidified isopropanol (10% v/v Triton X-100 in 1:250 mixture of concentrated HCl in isopropanol). When the formazan deposit was fully solubilized by further mixing, the absorbance (OD) of the cultures was measured at 540 nm and 690 nm wavelength (690 nm readings were used as blanks for artifacts between wells). The percent protection for each treated culture was calculated using the equation: [formula]

As for `Cc1c(CO)c(C(C)C)c(Sc2cc(Cl)cc(Cl)c2)n1Cc1cccnc1`, the figures for the IC50 in assay [1] and in assay [2] were 79 nM and 17.5 nM, respectively.
In the case of `Cc1c(CO)c(C(C)C)c(Sc2cc(Cl)cc(Cl)c2)n1C`, the IC50 in assay [1] was determined as 930 nM; in assay [2] it was 580 nM.
`Cc1c(CO)c(C(C)C)c(Sc2cccc(Cl)c2)n1Cc1cscn1`: in assay [1], the IC50 came to 4120 nM.
As for `Cc1c(CO)c(C(C)C)c(Sc2ccccc2)n1Cc1ccncc1`, the IC50 in assay [1] was determined as 260 nM; in assay [2], 11.5 nM.
Turning to `Cc1c(CO)c(C(C)C)c(Sc2ccc(F)cc2Cl)n1Cc1ccncc1`, the IC50 in assay [1] stood at 5430 nM.
Turning to `Cc1c(CO)c(C(C)C)c(Sc2cc(Cl)ccc2Cl)n1Cc1ccncc1`, the IC50 in assay [1] was 86 nM; in assay [2], 69 nM.
The matching figures for `Cc1c(CO)c(-c2ccccc2)c(Sc2cc(Cl)cc(Cl)c2)n1Cc1ccncc1`: 493 nM and 407 nM.
On to `CC(=O)NCc1c(C(C)C)c(Sc2cc(Cl)cc(Cl)c2)n(Cc2ccncc2)c1C`, for which the IC50 in assay [1] amounted to 198 nM; in assay [2], 32 nM.
In the same order, the values of `Cc1cc(C(C)C)c(Sc2cc(Cl)cc(Cl)c2)n1Cc1ccncc1` are 117 nM and 44 nM.
In the same order, the values of `Cc1c(CN=[N+]=[N-])c(C(C)C)c(Sc2cc(Cl)cc(Cl)c2)n1Cc1ccncc1` are 91 nM and 16 nM.
Turning to `COC(=O)NCc1c(C(C)C)c(Sc2cc(Cl)cc(Cl)c2)n(Cc2ccncc2)c1C`, the IC50 in assay [1] amounted to 90 nM.
As to `COCc1c(C(C)C)c(Sc2cc(Cl)cc(Cl)c2)n(Cc2ccncc2)c1C`, the half-maximal inhibitory concentration (IC50) in assay [1] amounted to 658 nM; in assay [2], 91 nM.
`CC(C)c1cc(CO)n(Cc2ccncc2)c1Sc1cc(Cl)cc(Cl)c1`: the IC50 in assay [1] turned out to be 289 nM; in assay [2], 183 nM.
For the compound `CC(=O)/C=C/c1cc(C(C)C)c(Sc2cc(Cl)cc(Cl)c2)n1Cc1ccncc1`, in assay [1], the IC50 turned out to be 972 nM.
Same read-out and setting: the same measure for `Cc1c(C#N)c(-c2ccccc2)c(Sc2cc(Cl)cc(Cl)c2)n1Cc1ccncc1`: 2450 nM.
With `Cc1c(CO)c(C)n(Cc2ccncc2)c1Sc1cc(Cl)cc(Cl)c1`, the IC50 turned out to be 287 nM in assay [1] and 49 nM in assay [2].
The matching figures for `Cc1c(C(N)=O)c(C(C)C)c(Sc2cc(Cl)cc(Cl)c2)n1Cc1ccncc1`: 150 nM and 22 nM.
The matching figures for `Cc1c(C(C)C)c(Sc2cc(Cl)cc(Cl)c2)n(Cc2ccncc2)c1C`: 125 nM and 94 nM.
Consider `Cc1c(CNC(=O)c2ccccc2)c(C(C)C)c(Sc2cc(Cl)cc(Cl)c2)n1Cc1ccncc1`, for which the IC50 came to 283 nM in assay [1] and 84 nM in assay [2].
On to `CC(C)c1cc(COC(N)=O)n(Cc2ccncc2)c1Sc1cc(Cl)cc(Cl)c1`, for which the IC50 in assay [1] worked out at 33 nM; in assay [2] it was 16 nM.
In the same order, the values of `CCc1c(CO)c(C(C)C)c(Sc2cc(Cl)cc(Cl)c2)n1Cc1ccncc1` are 43 nM and 11 nM.
On to `CC(C)c1c(CO)c(C(C)C)n(Cc2ccncc2)c1Sc1cccc(Cl)c1`, for which the half-inhibitory concentration (IC50) in assay [1] stood at 272 nM; in assay [2], 110 nM.
In the same order, the values of `CC(C)c1c(CO)c(CO)n(Cc2ccncc2)c1Sc1cc(Cl)cc(Cl)c1` are 60 nM and 10 nM.
